These results are taken from publication PMC2116235 (The Journal of Cell Biology, 1990).

In assay [1] the target is T1, type IV collagen (Mus musculus, UniProt P02463+P08122). Nature of the assay: Turbidity of type IV collagen assembly. As to conditions: peptide 100 µg/ml with type IV collagen-NC1 domain mixtures, 37C, 360 nm. In kind it is biochemical, murine (EHS tumor).
For assay [2], the target named is T1, type IV collagen. Put plainly: Solid phase binding of 125I-peptides to type IV collagen. The arrangement: species or system murine (EHS tumor). As to conditions: 37C, 2 h; for Competition of bound 125I-peptide by unlabeled corresponding peptide: 5 µg 125I-peptide, unlabeled peptide up to 400-fold excess (2 mg/ml).
Assay [3] deals with intact type IV collagen (EHS tumor) (mouse (endogenous in the EHS tumor)). Put plainly: rotary shadowing electron microscopy.
In assay [4] the test system is bovine aortic endothelial cells. Nature of the assay: Cell spreading assay. In kind it is cell-based. As to conditions: 37C.
The conditions of assay [5]: cited from earlier work.
In assay [6] the test system is type IV collagen. As to conditions: cited from earlier work.
For another assay, the system named is BSA. Nature of the assay: Nonspecific binding of peptide to BSA-coated plastic. The following applies: BSA coated onto plastic; all concentrations used; data not shown.
A further assay deals with murine melanoma cells. Nature of the assay: Adhesion of murine melanoma cells. In kind it is cell-based. As to conditions: preliminary observations.
Assay [7] has as its system adhesion of bovine aortic endothelial cells to type IV collagen. Put plainly: Competition of endothelial cell binding to type IV collagen by peptides. The format is cell-based. The following applies: ~5 µg (100 µg/ml) peptide; type IV collagen coated at 10 µg/ml; 60 min at 37C.
Assay [8] concerns bovine aortic endothelial cells. Put plainly: Binding of 125I-Hep-I to endothelial cells in solution, direct and competition. As to conditions: 5 µg 125I-Hep-I; unlabeled peptide up to 400-fold excess, 4C, 20 min.
The subject of assay [9] is microvascular endothelial cells. Put plainly: Adhesion of microvascular endothelial cells. In kind it is cell-based. The following applies: preliminary observations.
In assay [10] the test system is adhesion of bovine aortic endothelial cells to NC1 domain. Nature of the assay: Competition of endothelial cell binding to NC1 domain by peptides. The format is cell-based.
Assay [11] deals with bovine aortic endothelial cells. As to conditions: as compared to fibronectin or laminin; cited from earlier work.
Assay [12] shares this test system. Nature of the assay: Direct solid phase cell-binding. In kind it is cell-based. The following applies: 35S-labeled cells, 37C, 30-60 min.
Assay [13] relates to adhesion of bovine aortic endothelial cells to type IV collagen. The format is cell-based. As to conditions: type IV collagen 1-60 µg/ml; glycosaminoglycan up to 10 mg/ml; 60 min at 37C.
Setting [14] is: 30 min, substrate type IV collagen 10 µg/ml or peptide Hep-I 20 µg/ml.

T1 sequence (P02463 173-1669): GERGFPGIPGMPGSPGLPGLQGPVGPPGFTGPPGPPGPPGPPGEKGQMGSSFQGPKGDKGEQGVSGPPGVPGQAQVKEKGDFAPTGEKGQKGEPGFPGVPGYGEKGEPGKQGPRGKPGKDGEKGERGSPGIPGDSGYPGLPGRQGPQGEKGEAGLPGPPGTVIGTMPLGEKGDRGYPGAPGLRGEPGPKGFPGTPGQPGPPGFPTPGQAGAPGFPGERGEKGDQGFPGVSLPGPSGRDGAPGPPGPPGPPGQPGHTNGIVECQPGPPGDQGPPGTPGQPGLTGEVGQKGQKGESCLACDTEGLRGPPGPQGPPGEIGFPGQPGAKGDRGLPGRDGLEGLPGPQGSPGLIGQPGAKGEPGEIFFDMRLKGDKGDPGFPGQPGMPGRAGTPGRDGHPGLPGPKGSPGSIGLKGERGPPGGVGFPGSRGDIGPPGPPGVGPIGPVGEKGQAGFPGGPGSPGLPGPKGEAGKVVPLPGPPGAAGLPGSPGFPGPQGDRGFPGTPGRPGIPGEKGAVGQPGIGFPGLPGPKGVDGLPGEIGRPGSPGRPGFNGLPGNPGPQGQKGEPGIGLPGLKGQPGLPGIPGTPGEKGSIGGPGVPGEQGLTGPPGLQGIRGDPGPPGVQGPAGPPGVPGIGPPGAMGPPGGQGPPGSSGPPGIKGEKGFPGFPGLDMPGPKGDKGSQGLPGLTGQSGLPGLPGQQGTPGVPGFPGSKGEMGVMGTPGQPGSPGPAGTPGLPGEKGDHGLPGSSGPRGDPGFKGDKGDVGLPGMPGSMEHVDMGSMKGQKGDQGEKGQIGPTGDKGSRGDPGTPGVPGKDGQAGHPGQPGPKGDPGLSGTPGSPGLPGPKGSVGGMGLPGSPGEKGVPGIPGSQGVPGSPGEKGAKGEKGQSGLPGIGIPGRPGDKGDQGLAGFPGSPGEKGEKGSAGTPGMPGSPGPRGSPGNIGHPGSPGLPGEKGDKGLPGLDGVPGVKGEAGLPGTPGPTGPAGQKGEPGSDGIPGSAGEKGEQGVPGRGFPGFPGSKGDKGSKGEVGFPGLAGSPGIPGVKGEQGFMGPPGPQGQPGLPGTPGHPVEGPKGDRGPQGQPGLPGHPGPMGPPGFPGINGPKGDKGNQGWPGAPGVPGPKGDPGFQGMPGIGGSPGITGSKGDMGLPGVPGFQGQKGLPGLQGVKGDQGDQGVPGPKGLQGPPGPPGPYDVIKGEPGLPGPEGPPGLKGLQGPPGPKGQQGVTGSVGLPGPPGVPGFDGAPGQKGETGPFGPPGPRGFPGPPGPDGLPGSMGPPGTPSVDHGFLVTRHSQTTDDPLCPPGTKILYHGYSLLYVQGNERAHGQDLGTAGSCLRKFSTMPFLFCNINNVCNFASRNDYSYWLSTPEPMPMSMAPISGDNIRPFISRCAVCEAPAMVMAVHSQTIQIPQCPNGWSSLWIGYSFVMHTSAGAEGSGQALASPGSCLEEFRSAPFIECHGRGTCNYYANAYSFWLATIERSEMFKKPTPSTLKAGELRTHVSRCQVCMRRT
T1 sequence (P08122 29-1707 limits assumed): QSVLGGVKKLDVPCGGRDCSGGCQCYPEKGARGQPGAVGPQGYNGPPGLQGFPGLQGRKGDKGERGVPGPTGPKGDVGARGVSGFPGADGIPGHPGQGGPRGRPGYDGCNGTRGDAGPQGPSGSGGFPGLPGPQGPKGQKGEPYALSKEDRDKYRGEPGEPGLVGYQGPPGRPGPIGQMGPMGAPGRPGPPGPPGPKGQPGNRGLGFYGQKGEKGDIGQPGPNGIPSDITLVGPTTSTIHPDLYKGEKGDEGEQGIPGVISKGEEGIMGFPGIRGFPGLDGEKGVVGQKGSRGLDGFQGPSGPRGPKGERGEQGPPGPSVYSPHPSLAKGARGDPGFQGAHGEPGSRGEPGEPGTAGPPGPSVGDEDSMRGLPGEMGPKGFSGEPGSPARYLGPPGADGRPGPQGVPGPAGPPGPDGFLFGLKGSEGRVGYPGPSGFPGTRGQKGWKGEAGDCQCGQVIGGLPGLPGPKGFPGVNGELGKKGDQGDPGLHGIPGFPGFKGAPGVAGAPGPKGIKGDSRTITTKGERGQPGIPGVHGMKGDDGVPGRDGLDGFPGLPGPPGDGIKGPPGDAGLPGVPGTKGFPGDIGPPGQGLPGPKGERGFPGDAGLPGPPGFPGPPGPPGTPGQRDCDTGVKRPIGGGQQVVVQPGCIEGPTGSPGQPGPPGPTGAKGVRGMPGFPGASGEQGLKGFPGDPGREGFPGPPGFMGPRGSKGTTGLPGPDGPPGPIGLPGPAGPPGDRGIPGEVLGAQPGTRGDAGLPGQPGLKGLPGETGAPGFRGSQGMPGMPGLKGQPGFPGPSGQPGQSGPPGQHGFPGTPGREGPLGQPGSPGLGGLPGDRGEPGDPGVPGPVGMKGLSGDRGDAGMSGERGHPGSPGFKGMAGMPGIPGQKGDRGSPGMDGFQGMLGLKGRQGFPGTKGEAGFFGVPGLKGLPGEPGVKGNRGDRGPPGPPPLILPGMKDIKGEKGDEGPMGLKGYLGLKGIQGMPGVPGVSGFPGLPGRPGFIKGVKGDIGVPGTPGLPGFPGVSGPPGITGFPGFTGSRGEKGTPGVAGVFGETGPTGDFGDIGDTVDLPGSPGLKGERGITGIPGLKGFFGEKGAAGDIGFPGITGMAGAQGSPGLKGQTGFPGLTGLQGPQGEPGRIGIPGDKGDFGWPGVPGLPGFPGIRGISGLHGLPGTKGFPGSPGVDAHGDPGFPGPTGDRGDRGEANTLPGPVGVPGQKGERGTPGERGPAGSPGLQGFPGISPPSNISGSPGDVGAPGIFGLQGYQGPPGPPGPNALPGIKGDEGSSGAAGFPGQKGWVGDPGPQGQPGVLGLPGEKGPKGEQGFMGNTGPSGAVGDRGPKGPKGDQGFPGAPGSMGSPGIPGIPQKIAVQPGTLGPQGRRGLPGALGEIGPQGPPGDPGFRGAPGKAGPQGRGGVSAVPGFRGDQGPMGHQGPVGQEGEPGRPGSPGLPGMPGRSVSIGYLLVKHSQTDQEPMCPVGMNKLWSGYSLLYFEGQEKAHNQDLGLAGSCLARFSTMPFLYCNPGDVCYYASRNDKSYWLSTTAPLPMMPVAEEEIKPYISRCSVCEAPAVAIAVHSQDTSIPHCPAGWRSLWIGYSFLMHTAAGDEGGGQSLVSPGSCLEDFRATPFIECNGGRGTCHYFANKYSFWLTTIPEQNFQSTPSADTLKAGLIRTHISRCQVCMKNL

For the substance DPLCPPGTKIL [peptide 1], the “Additive effect on maximal turbidity” value at type IV collagen [1] is given as “did not have any additive effect”. For the same substance, the “Competition of bound 125I-peptide by unlabeled corresponding peptide” value on type IV collagen [2] was “could not be competed”. Moreover, the “Nature of binding to type IV collagen” value on type IV collagen [2] (solid phase, 125I-peptide, pH 7.4) is recorded as “this binding should not be specific”.

As for “intact type IV collagen (EHS tumor) (complex)”, the percent of the total type IV collagen in the lattice in assay [3] is 74%.

For the substance “BSA: control coating protein [reference compound]”, the “Adhesion of added endothelial cells in spreading experiment” value in assay [4] (BSA substrate 5 µg/ml, all time intervals (30-90 min)) is listed as 1.7-2.2%.

For TAGSCLRKFSTM [peptide Hep-I], the Binding to heparin result in [5] is “specifically bound heparin”. In addition, in the assay on type IV collagen [6], the “Inhibition of the binding of heparin to type IV collagen” value is “dose-dependent manner”. Further, the “Nonspecific binding of the peptide to BSA, of total binding to type IV collagen” value in the assay on BSA is less than 2%. Besides, the “Adhesion of murine melanoma cells” value with murine melanoma cells is “also adhered”. Further, the “Maximal inhibition of adhesion to type IV collagen” value in assay [7] is given as ~ 50%. Besides, the “Competition for binding of 125I-Hep-I to endothelial cells” value in assay [8] is reported as “efficiently competed”. In addition, the “Adhesion of microvascular endothelial cells” value in assay [9] is on record as “also adhered”. For the same substance, the “Spread cells, of attached endothelial cells” value in [4] (setting [14]) was ~ 60%; in assay [4] (60 min, peptide Hep-I substrate 20 µg/ml) it was 83%; in assay [4] (90 min, peptide Hep-I substrate 20 µg/ml) it was 84%. The “Competition of bound 125I-peptide by unlabeled corresponding peptide” value on type IV collagen [2] is listed as “efficient competition”. The “Endothelial cell adhesion to NC1 domain” value in assay [10] (1 µg (20 µg/ml) peptide, NC1 coated 20 µg/ml, 100% = no inhibitor, 60 min at 37C) is on record as not above 20%. The “Inhibition of cell adhesion on NC1 domain substrates” value in assay [10] (substrates coated with NC1 domain (Discussion)) is ~ 80%.

As for GRGDSP [reference compound], in assay [10] (up to 500 µg/ml inhibitor, NC1 coated 20 µg/ml, 60 min at 37C), the “Effect on endothelial cell adhesion to NC1 domain” value is given as “did not have any effect”.

Regarding MFKKPTPSTLKAGELR [peptide 4], on type IV collagen [1], the “Additive effect on maximal turbidity” value is on record as “did not have any additive effect”.

GDSRTITTKGERGQP [peptide ET-2]: in assay [8], the “Competition for binding of 125I-Hep-I to endothelial cells” value is reported as “failed to compete”.

With “type IV collagen: type IV collagen isolated from the EHS tumor, a murine tumor”, in [11], the “Preferential adhesion of aortic endothelial cells” value is “preferably adhered”. Moreover, the Binding to heparin result in [5] was “specifically bound heparin”. The “Adhesion of added endothelial cells” value is reported as ~ 20% in assay [12] (coated at 0.05 µg/well, ~5,000/well) and ~ 40% in [12] (coated at 5 µg/well). Besides, in assay [4] (setting [14]), the “Spread cells, of attached endothelial cells” value is reported as ~ 92.8%.

For the substance heparin, in assay [13], the “Effect on endothelial cell binding to type IV collagen” value is on record as “unaffected”.
